{
  "source": "patent US6900198B2",
  "about": "“Synthetic catalytic free radical scavengers useful as antioxidants for prevention and therapy of disease” (Eukarion, Inc., priority 1995, dated 2005)",
  "key": {"[1]": {"system": "dopaminergic neurons in mouse brain", "assay": "MPTP animal model of Parkinson's disease, mazindol binding", "method": "This model is now widely accepted in the art and is used for evaluating potential therapeutic agents for this disease.\nTritiated mazindol was used for binding studies on samples of the globus pallidus, caudate nucleus, and striatum of mouse brain according to conventional methods; specific binding of tritiated mazindol was determined autoradiographically or by membrane binding (specific binding to the membrane fraction). The experiment was performed over a 7 day period. Mice in the MPTP group were treated […] with MPTP alone (40 mg/kg each day on days 1 and 2). […] The animals were sacrificed after 7 days.\nMPTP in mice. Adult male CFW mice (25-33 g) were administered two injections of MPTP dissolved in normal saline (40 mg/kg, s.c.) 24 hours apart. […] Animals were sacrificed 7 days after the first MPTP injection, and neuronal pathology was assessed by the binding of ^3H-mazindol, a ligand for the dopamine transporter, to […] frozen brain sections or to striatal homogenates."}, "Hippocampal slices [2]": {"system": "Hippocampal slices", "assay": "Lactic acid (acidosis)-induced lipid peroxidation in hippocampal slices", "assay_type": "cell-based, Sprague-Dawley rats", "conditions": "50 μM; 30 mM lactate, pH 5.0, 100 minutes", "method": "Hippocampal slices (400 μm thick) were obtained from Sprague-Dawley rats (150-200 g) and collected in preoxygenated (95% O2/5% CO2) Krebs-Ringer phosphate medium (pH 7.4) containing NaCl 120 mM, KCl 5 mM, CaCl2 1.3 mM, MgCl2 1.2 mM, NaPhosphate 16 mM (pH 7.4) and glucose 10 mM. After 15 minutes preincubation in a water bath at 35° C. under agitation, the buffer was replaced with the same buffer (control) or a modified buffer (lactate buffer) containing NaCl 90 mM, KCl 5 mM, CaCl2 1.3 mM, MgCl2 1.2 mM, NaPhosphate 16 mM and lactic acid 30 mM (pH 5.0). […] After 100 minutes, slices were collected and homogenized in 0.9 ml of TCA 5%, whereas 0.35 ml of TCA 5% was added to 0.5 ml of the incubation medium. Lipid peroxidation was measured by adding 0.25 ml of a thiobarbituric acid reagent (TBAR) to 0.85 ml of the TCA extracts and incubating the mixture for 60 minutes at 85-93° C. Lipids were then extracted with 2×0.5 ml 1-butanol by vortexing for 10 seconds, then centrifuging at 2,000 rpm for 10 minutes. The absorbance of peroxidized lipids in the alcohol phase was measured in a spectrophotometer at 532 nm. Data were expressed as nmoles of malondialdehyde (MDA) using authentic MDA to establish a standard curve. Proteins were measured from an aliquot of the TCA extracts using the method of Bradford and the final results were calculated as nmoles MDA formed/mg protein. […]"}, "Hippocampal slices [3]": {"system": "Hippocampal slices", "assay": "Anoxia in hippocampal slices, EPSP recovery", "assay_type": "cell-based, Sprague-Dawley rats", "conditions": "C7 50 μM", "from_the_text": "Anoxia in hippocampal slices. […] A glass recording micropipet was positioned in CA1 stratum radiatum to record excitatory postsynaptic potential (EPSPs) generated by electrical stimulation of the Schaffer-commissural pathway by a bipolar stimulation electrode at a frequency of 0.033 Hz. During anoxic episodes, the oxygen supply was replaced with 100% N2 gas. N2 was supplied for 90 seconds following electrical silence after which O2 was reintroduced. Recovery of EPSPs (both slope and amplitude) was recorded for 50 minutes, at which time the final viability of the slices was determined, with viability being defined as the ability of the slice to generate a 3 mV EPSP."}, "[4]": {"conditions": "cited from earlier work"}},
  "data": [
    {"smiles": "[Cl][Mn]1[O]c2ccccc2C=NCCN=Cc2ccccc2[O]1", "note": "[Compound C7]", "values": [
      {"measurement": "number of surviving dopaminergic neurons in mice treated with MPTP", "setting": "[1]; C7 33 mg/kg i.p. days 1-3, MPTP 40 mg/kg days 1 and 2, versus MPTP alone", "value": "approximately doubled"},
      {"measurement": "protection against the reduction in 3H-mazindol binding", "setting": "[1]; C7 3×33 mg/kg, i.p., MPTP 2×40 mg/kg, s.c.", "value": "significant (p<0.05) degree of protection"},
      {"measurement": "protection against the reduction in 3H-mazindol binding measured in striatal homogenates", "setting": "[1]; C7 3×33 mg/kg, i.p., MPTP 2×40 mg/kg, s.c., panel B", "value": "significant protection"},
      {"measurement": "number of dopaminergic neurons in regions of the mouse brain, compound alone", "setting": "[1]; C7 alone, no MPTP", "value": "not adversely affected"},
      {"measurement": "lactate-induced increase in lipid peroxidation (malondialdehyde)", "setting": "Hippocampal slices [2]", "value": "totally abolished the increase in lipid peroxidation"},
      {"measurement": "protection against anoxia-induced decrease in synaptic response in CA1 (EPSP slope and amplitude)", "setting": "Hippocampal slices [3]", "value": "significant degree of protection"},
      {"measurement": "SOD activity previously found", "setting": "[4]", "value": "about 769 units/mM"}
    ]}
  ]
}
